We go through eight compounds from PubChem BioAssay (NCI).

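Cells were grown in 96-well plates and exposed to each compound for 48 hours at five concentrations; endpoints were interpolated linearly between bracketing concentrations, or set to the highest concentration if not reached. The concentration for 50% growth inhibition is given as GI50. TGI: total growth inhibition.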

Test systems include OVCAR-8 ovarian; SF-295 CNS; LOX IMVI melanoma; U251 CNS; IGROV1 ovarian; MALME-3M melanoma; SK-OV-3 ovarian; KM12 colon; COLO 205 colon; HT29 colon.
Assay in all cases: NCI-60 cell line screen, 48 h

In the case of `COC(=O)C1CCCN1C(=O)[C@@H]1CCCN1C(=O)[C@H](Cc1c[nH]c2ccccc12)NC(=S)Nc1cc(C(F)(F)F)cc(C(F)(F)F)c1` (some centres undefined), the GI50 in the assay on OVCAR-8 ovarian was 1.92 µM; in the assay with SF-295 CNS, 1.77 µM; with LOX IMVI melanoma, 1.91 µM; in the assay on U251 CNS it was 1.67 µM; in the assay on IGROV1 ovarian, 3.34 µM; with MALME-3M melanoma it was 3.35 µM. Also, the GI50 was 2.95 µM in the assay on SK-OV-3 ovarian, 1.92 µM in the assay on KM12 colon, 1.72 µM in the assay with COLO 205 colon and 1.89 µM with HT29 colon. In addition, the TGI came to 4.2 µM in the assay on OVCAR-8 ovarian; 4.08 µM with SF-295 CNS; 4.28 µM in the assay on LOX IMVI melanoma; 3.81 µM in the assay on U251 CNS; 10.9 µM with IGROV1 ovarian; 12.7 µM in the assay with MALME-3M melanoma. For the same compound, the TGI in the assay with SK-OV-3 ovarian was 11.4 µM; with KM12 colon, 4.03 µM; with COLO 205 colon it was 3.21 µM; with HT29 colon, 3.44 µM.
For `C=C1C(=O)O[C@H]2[C@H]1CCC(/C=N/c1ncc(Br)cc1N)=C\CC[C@@]1(C)O[C@@H]21`, the GI50 with OVCAR-8 ovarian is 2.98 µM; in the assay on SF-295 CNS, 10.4 µM; with LOX IMVI melanoma, 1.71 µM; with U251 CNS, 5.06 µM; with IGROV1 ovarian, 2.11 µM; in the assay with MALME-3M melanoma, 1.55 µM. The GI50 in the assay with SK-OV-3 ovarian was 16.3 µM; in the assay with KM12 colon, 5.07 µM; in the assay with COLO 205 colon it was 1.65 µM; with HT29 colon, 1.93 µM. In addition, the TGI came out at 10.9 µM with OVCAR-8 ovarian; 24.3 µM in the assay with SF-295 CNS; 3.46 µM in the assay on LOX IMVI melanoma; 18.1 µM in the assay on U251 CNS; 7.44 µM in the assay on IGROV1 ovarian; 3.6 µM in the assay with MALME-3M melanoma. Besides, the TGI with SK-OV-3 ovarian came out at 95.2 µM; in the assay with KM12 colon, 20.2 µM; with COLO 205 colon it was 3.59 µM; in the assay on HT29 colon it was 5.52 µM.
In the case of `Nc1nc(N)c2c(n1)NC(c1ccc(F)cc1)C1CCc3ccccc3C1=N2` (centres undefined), the GI50 is 8.07 µM in the assay on OVCAR-8 ovarian; 1.71 µM with SF-295 CNS; 3.98 µM with LOX IMVI melanoma; 4.29 µM in the assay with U251 CNS; 7.79 µM with IGROV1 ovarian; 2.52 µM with MALME-3M melanoma. For the same compound, the GI50 with SK-OV-3 ovarian was 11.1 µM; in the assay on KM12 colon, 4.93 µM; in the assay on COLO 205 colon, 1.62 µM; in the assay on HT29 colon it was 3.84 µM. The TGI turned out to be 27 µM in the assay with OVCAR-8 ovarian; 6.18 µM with SF-295 CNS; 16.1 µM in the assay with LOX IMVI melanoma; 16.9 µM with U251 CNS; 24.1 µM in the assay with IGROV1 ovarian; 15 µM with MALME-3M melanoma. Further, the TGI came out at 23.3 µM with SK-OV-3 ovarian, 17 µM with KM12 colon, 3.61 µM with COLO 205 colon and 15 µM with HT29 colon.
On to `CN1C(=O)C(CC(=O)O)NC1=S` (centres undefined), for which the TGI with OVCAR-8 ovarian, with SF-295 CNS, with LOX IMVI melanoma, with U251 CNS, in the assay with IGROV1 ovarian and in the assay with MALME-3M melanoma was over 100 µM each time. For the same compound, the TGI in the assay with SK-OV-3 ovarian, in the assay with KM12 colon, with COLO 205 colon and in the assay on HT29 colon was over 100 µM throughout.
Regarding `Oc1ccccc1C=Nc1nc(SCc2ccccc2)nc2[nH]ncc12`, the GI50 in the assay on OVCAR-8 ovarian was 46.8 µM; in the assay with SF-295 CNS it was 52 µM; in the assay on LOX IMVI melanoma it was 56.3 µM; with U251 CNS, 46.4 µM; with IGROV1 ovarian it was over 100 µM; with MALME-3M melanoma it was 34.8 µM. In addition, the GI50 in the assay on SK-OV-3 ovarian was over 100 µM; in the assay on KM12 colon, 37.5 µM; in the assay with COLO 205 colon it was 29.1 µM; in the assay with HT29 colon, 54.6 µM. The TGI in the assay on OVCAR-8 ovarian, with SF-295 CNS, in the assay with LOX IMVI melanoma, in the assay on U251 CNS, with IGROV1 ovarian and in the assay with MALME-3M melanoma was over 100 µM in each case. In addition, the TGI in the assay on SK-OV-3 ovarian, with KM12 colon, in the assay with COLO 205 colon and in the assay with HT29 colon was over 100 µM throughout.
For `COc1ccc(CC(=O)NCCc2ccc(OC)c(OC)c2)cc1Br`, the TGI in the assay with OVCAR-8 ovarian, with SF-295 CNS, with LOX IMVI melanoma, in the assay with U251 CNS, in the assay with IGROV1 ovarian and in the assay with MALME-3M melanoma was over 100 µM in each case. Moreover, the TGI with SK-OV-3 ovarian, in the assay with KM12 colon, in the assay with COLO 205 colon and in the assay with HT29 colon was over 100 µM each time.
Turning to `CC(NCCC(=O)N(CCC(=O)N(CCC(=O)N(CCC(=O)N(CCC(=O)N(CCC(=O)N(CCC(=O)N(CCC(=O)N(CCC(=O)N(CCC(=O)O)[C@H](C)c1ccccc1)[C@H](C)c1ccccc1)[C@H](C)c1ccccc1)[C@H](C)c1ccccc1)[C@H](C)c1ccccc1)[C@H](C)c1ccccc1)[C@H](C)c1ccccc1)[C@H](C)c1ccccc1)[C@H](C)c1ccccc1)c1ccccc1` (some centres undefined), the GI50 with OVCAR-8 ovarian is 3.45 µM; in the assay on SF-295 CNS, 1.92 µM; in the assay with LOX IMVI melanoma it was 1.17 µM; with U251 CNS, 2.82 µM; in the assay with IGROV1 ovarian it was 0.872 µM; in the assay on MALME-3M melanoma, 2.04 µM. Besides, the GI50 is 10.6 µM in the assay on SK-OV-3 ovarian, 1.76 µM in the assay with KM12 colon, 1.43 µM with COLO 205 colon and 1.6 µM in the assay on HT29 colon. Further, the TGI in the assay on OVCAR-8 ovarian was over 47.1 µM; in the assay on SF-295 CNS, 5.55 µM; in the assay with LOX IMVI melanoma it was 2.37 µM; in the assay with U251 CNS it was 11.1 µM; in the assay with IGROV1 ovarian, 15 µM; in the assay on MALME-3M melanoma, 5.91 µM. The TGI in the assay on SK-OV-3 ovarian is over 53 µM; with KM12 colon, 4.9 µM; with COLO 205 colon, 2.83 µM; in the assay with HT29 colon it was 5.37 µM.
On to `CNCCNc1c2c(c(NCCNC)c3[nH]ccc13)C(=O)c1ccccc1C2=O`, for which the GI50 is 0.0578 µM with OVCAR-8 ovarian; 0.139 µM with SF-295 CNS; under 0.0231 µM in the assay with LOX IMVI melanoma; 0.0587 µM with U251 CNS; 0.111 µM in the assay with IGROV1 ovarian; 0.258 µM in the assay with MALME-3M melanoma. Moreover, the GI50 is 5.67 µM with SK-OV-3 ovarian, 0.0892 µM in the assay on KM12 colon, 3.32 µM in the assay on COLO 205 colon and 1.35 µM with HT29 colon. For the same compound, the TGI in the assay on OVCAR-8 ovarian came to 0.393 µM; in the assay on SF-295 CNS, 0.901 µM; in the assay on LOX IMVI melanoma, 0.0717 µM; in the assay with U251 CNS, 0.615 µM; with IGROV1 ovarian, 0.686 µM; with MALME-3M melanoma, 1.32 µM. Further, the TGI in the assay with SK-OV-3 ovarian amounted to 13.3 µM; in the assay with KM12 colon it was 0.374 µM; in the assay on HT29 colon, 5.23 µM.
